Entries after “also recorded” stand apart in the source; their conditions may differ.
How the values were obtained:
full-length human ARH = molecular target: T1, full-length human ARH (Homo sapiens, UniProt Q5SW96); experiment: Microscale thermophoresis (MST), ARH; type: binding; settings: concentration range tested up to 50 µM for β1
T1 construct: The full-length human ARH gene was cloned into the pETNKI-6xhis-3C-LIC vector; made in house; host or cells: E. coli BL21(DE3)
T1 sequence (Q5SW96 1-308): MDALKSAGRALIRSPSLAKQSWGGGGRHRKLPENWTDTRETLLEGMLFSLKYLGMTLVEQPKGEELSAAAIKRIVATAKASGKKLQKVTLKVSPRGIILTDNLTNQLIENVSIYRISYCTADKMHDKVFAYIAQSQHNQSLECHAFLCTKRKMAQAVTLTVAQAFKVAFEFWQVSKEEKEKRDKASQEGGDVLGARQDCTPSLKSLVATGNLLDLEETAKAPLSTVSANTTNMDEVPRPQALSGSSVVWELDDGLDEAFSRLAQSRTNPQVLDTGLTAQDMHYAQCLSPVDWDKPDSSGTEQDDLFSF
Text: (§1) Fig. 2. Adaptor protein binding to integrin β subunits. (A) Colocalization of integrin chimeras fused to the promiscuous biotin ligase BirA* (green in merge) with vinculin (red; left panels) or clathrin (red; right panels) in PA-JEB/β4 keratinocytes. Actin is shown in blue. Nuclei are stained with DAPI (cyan). Scale bars: 20 μm. (B) Representative western blots of BioID assays performed using the integrin chimeras shown in A. Quantifications of ARH, Numb and talin signal intensities normalized to streptavidin-HRP levels are shown (n=3; bars show mean±s.d.). (C) Representative western blots of pulldown assays (from two repeats) using synthetic integrin β cytoplasmic domains in RAC-11P cell lysates.
The full-length human ARH gene was cloned into the pETNKI-6xhis-3C-LIC vector ([Luna-Vargas et al., 2011]) and 6xhis–ARH protein was produced in Bl21(DE3) E. coli cells. Cells were grown at 37°C until an optical density at 600 nm (OD600) of 0.6 was reached. Temperature was reduced to 30°C and protein was expressed upon induction with 0.4 mM IPTG for 3.5 h. Cells were harvested and resuspended in lysis buffer (20 mM HEPES, pH 7.5, 200 mM NaCl, 1 mM TCEP and 5 μg ml^−1 DNase). After sonication, cell debris and insoluble proteins were removed by centrifugation (21,000 g for 30 min). 6xhis–ARH was purified from the soluble fraction using nickel Sepharose beads and eluted in 20 mM HEPES, pH 7.5, 200 mM NaCl, 1 mM TCEP and 250 mM imidazole. Fractions containing 6xhi–ARH were further purified on a SEC650 size exclusion column (Bio-Rad), equilibrated with 20 mM HEPES, pH 7.5, 100 mM NaCl and 1 mM TCEP.
(§2) All MST measurements were performed on a Monolith NT.115 red-blue (Nanotemper, Munich, Germany) using premium-coated capillaries to reduce non-specific interaction of the proteins with the glass surface. Both interaction partners (ligand and receptor) were transferred into MST buffer (20 mM Tris-HCl pH 7.5, 200 mM sodium chloride, 1 mM TCEP and 0.05% Tween-20) to avoid artifacts derived from buffer mismatches. […] Data was analyzed using the MO Affinity Analysis Software (Nanotemper).

Numb-PTB (20-175) = molecular target: T2, Numb-PTB (20-175) (Homo sapiens, UniProt P49757); experiment: Microscale thermophoresis (MST), Numb; type: binding; settings: concentration range tested up to 50 µM for β1
T2 construct: A pETNKI-6xhis-3C-Numb-PTB (20-175) construct was expressed in Rosetta2 (DE3) cells; 6xHis-3C (N, cleaved yes); made in house; host or cells: E. coli Rosetta2 (DE3)
T2 sequence (P49757 20-175): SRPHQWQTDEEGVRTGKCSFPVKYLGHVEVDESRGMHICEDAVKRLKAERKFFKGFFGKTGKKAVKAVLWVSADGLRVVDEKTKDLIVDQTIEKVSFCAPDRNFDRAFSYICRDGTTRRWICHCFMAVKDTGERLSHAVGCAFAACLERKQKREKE
Text: as §1
A pETNKI-6xhis-3C-Numb-PTB (20-175) construct was expressed in Rosetta2 (DE3) cells for 18 h at 20°C. Cells were lysed (25 mM Tris-HCl pH 8.0, 10 mM imidazole, 200 mM NaCl, 1 mM TCEP, 5 μg/ml DNase) and sonicated, after which insoluble proteins and cell debris were removed by centrifugation (21,000 g for 30 min at 4°C). Soluble lysate was applied to a nickel Sepharose column and beads were washed with wash buffer (lysis buffer without DNase) before protein was eluted in wash buffer supplemented with 250 mM imidazole. The 6xhis tag was cleaved off by his-3C protease during dialysis against 25 mM Tris-HCl pH 8.0, 100 mM NaCl, 1 mM TCEP, 16 h at 4°C. Elution fractions were pooled, diluted with six volumes of 20 mM HEPES pH 7.5, 1 mM TCEP and applied to a 1 ml Resource S cation-exchange column (Cytiva). Protein was eluted in a NaCl gradient (50–700 mM) in 25 mM HEPES (pH 7.5). 6xhis-Numb-PTB was concentrated and further purified by size-exclusion chromatography (SEC70 column, Bio-Rad) in 25 mM Tris-HCl pH 8.0, 200 mM NaCl and 1 mM TCEP.
All MST measurements were performed on a Monolith NT.115 red-blue (Nanotemper, Munich, Germany) using premium-coated capillaries to reduce non-specific interaction of the proteins with the glass surface. […] Data was analyzed using the MO Affinity Analysis Software (Nanotemper).

kindlin-2 = experiment: Microscale thermophoresis (MST), kindlin-2; type: binding; settings: titration of kindlin-2 to 200 nM ATTO488-labeled cytoplasmic tail peptide; n≥3
Description: Kindlin-2 was expressed and purified as described in [Böttcher et al. (2017)]. Briefly, kindlin constructs were cloned into pCoofy17 ([Scholz et al., 2013]), which adds an N-terminal His10-Sumo tag and expressed soluble in E. coli Rosetta at 18°C overnight. After purification by immobilized-metal affinity chromatography (IMAC) in high-salt TBS buffer (20 mM Tris, pH 7.5, 500 mM NaCl, 1 mM TCEP), the Sumo tag was removed by SenP2 (obtained from MPIB Biochemistry Core Facility) digest overnight and the protein was further purified by SEC using TBS (20 mM Tris-HCl pH 7.5, 200 mM NaCl, 1 mM TCEP) containing 5% glycerol as running and storage buffer. After the final chromatography, the purity, integrity and identity of recombinant kindlin-2 and talin-1 head domain were controlled by UV spectrum, SDS-PAGE, high-resolution total mass and dynamic light scattering (DLS).
as §2, with “(Nanotemper). […]” for “(Nanotemper).”

ARH = experiment: Peptide pulldown, ARH; type: binding; settings: desthiobiotin tail peptide on streptavidin beads, RAC-11P lysate, 4°C, 4 h; western blot; two repeats
Description: (§3) Peptide pulldowns were carried out as previously described ([Böttcher et al., 2012]) with the mouse β1 wild-type cytoplasmic tail peptide ([…]-OH) and a scrambled peptide ([…]-OH), mouse β3 wild-type tail peptide ([…]-OH), mouse β5 wild-type tail peptide ([…]-OH), β5 Δ8aa tail peptide ([…]-OH) and scrambled peptide […].
(§4) The tail peptides were synthesized de novo with a desthiobiotin on the N-terminus, coupled to Dynabeads MyOne streptavidin C1 (10 mgml^−1, Invitrogen) and incubated with RAC-11P cell lysates (prepared with M-PER reagent, Thermo Fisher Scientific) at 4°C with rotation for 4 h. After three washes with wash buffer (M-PER diluted 1:1 with PBS), bound proteins were eluted in 2× Laemmli buffer at 95°C for 5 min and separated on an 8% SDS-PAGE gel.

Numb = experiment: Peptide pulldown, Numb; type: binding; settings: desthiobiotin tail peptide on streptavidin beads, RAC-11P lysate, 4°C, 4 h; western blot; two repeats
Description: as §3, §4

talin = experiment: Peptide pulldown, talin; type: binding; settings: desthiobiotin tail peptide on streptavidin beads, RAC-11P lysate, 4°C, 4 h; western blot; two repeats
Description: as §3, §4

KANK-2 = experiment: Peptide pulldown, KANK-2; type: binding; settings: desthiobiotin tail peptide on streptavidin beads, RAC-11P lysate, 4°C, 4 h; western blot; two repeats
Description: as §3, §4

kindlin-1/2 = experiment: Peptide pulldown, kindlin-1/2; type: binding; settings: desthiobiotin tail peptide on streptavidin beads, RAC-11P lysate, 4°C, 4 h; western blot; two repeats
Description: as §3, §4

[1] = system: integrin β5 clustering in SW620, HT29 and SW480 cells; experiment: Inhibition of β5 clustering (confocal microscopy); type: cell-based, human; settings: cells fixed after 3 days of cilengitide treatment
Description: (§5) Fig. 6. Integrin β5 promotes colorectal cancer cell proliferation. […] Cells were fixed after 3 days of treatment and β5 (green in merge) and vinculin (magenta) were visualized using confocal microscopy. Cell nuclei are shown in blue. Scale bars: 20 μm. (B) Cells were seeded on day 0 and proliferation was measured from day 1–5 in cells with or without cilengitide (added at day 1). (C,E) FACS plots showing the expression of β5 in SW620 (C) and HT29 (E) wild-type (WT) and β5 knockout cells. Cells stained with a secondary PE-conjugated antibody only were used as negative control (n=2). (D,F) Proliferation of SW620 and HT29 wild-type and β5 knockout cells. (G) Representative IF images showing integrin β5 (green in merge), vinculin (red), actin (blue), nuclei (cyan) in SW620 wild-type, β5-deficient, and cilengitide-treated cells that were cultured for 5 days on coverslips prior to fixation. Scale bars: 100 μm. (H,I) Proliferation of SW620 (H) and HT29 (I) wild-type and β5 knockout cells on 3.2 μg ml^−1 collagen. Results shown represent mean±s.d. of three biological replicates, of which each experiment was performed in triplicate. *P<0.05 (two-sided unpaired Student's t-test).
(§6) PA-JEB/β4 keratinocytes were seeded on glass coverslips and cultured in complete KGM medium for 24 h, and then treated with DMEM plus 10% FCS for 24 h. […]

SW620 cells [2] = experiment: Proliferation assay (Crystal Violet), SW620; type: cell-based, human; settings: cilengitide added at day 1, measured day 1–5; concentration optimised per cell line, not given; three biological replicates
Description: as §5, with “Results shown represent mean±s.d. of three biological replicates, of which each experiment was performed in triplicate. *P<0.05 (two-sided unpaired Student's t-test).” left out
(§7) Cells were seeded at a density of 5×10^4 cells per well in a 96-well plate and treated with cilengitide or DMSO, as indicated in the figure legend. […] Cells were air-dried overnight and lysed in 2% SDS, after which the OD value of Crystal Violet at 490 nm was determined using an Epoch microplate reader equipped with Gen5 software. […]

HT29 cells = experiment: Proliferation assay (Crystal Violet), HT29; type: cell-based, human; settings: cilengitide added at day 1, measured day 1–5; concentration optimised per cell line, not given; three biological replicates
Description: as §5, with “Results shown represent mean±s.d. of three biological replicates, of which each experiment was performed in triplicate. *P<0.05 (two-sided unpaired Student's t-test).” left out
as §7

SW480 cells = experiment: Proliferation assay (Crystal Violet), SW480; type: cell-based, human; settings: cilengitide added at day 1, measured day 1–5; concentration optimised per cell line, not given; three biological replicates
Description: as §5, with “Results shown represent mean±s.d. of three biological replicates, of which each experiment was performed in triplicate. *P<0.05 (two-sided unpaired Student's t-test).” left out
as §7

SW620 cells [3] = experiment: Cell growth morphology (immunofluorescence), SW620; type: cell-based, human; settings: cilengitide-treated SW620 cells cultured for 5 days on coverslips; control cells mainly formed a 2D monolayer
Description: as §5, §6

integrin αVβ3/αVβ5 = settings: stated as known, no reference given; cited from earlier work
Text: The integrin β5 plays a role in breast cancer and osteosarcoma cell proliferation ([Bianchi-Smiraglia et al., 2013]; [Lock et al., 2018]). Here, we analyzed the role of integrin β5 in cell proliferation of SW620, HT29 and SW480 colorectal cancer cells, in which β5 localizes predominantly in FCLs, FAs or is distributed equally in both adhesions, respectively. Because none of these cell lines express the integrin β3 subunit (Fig. S5A), we used the integrin αVβ3/αVβ5 antagonist cilengitide as a tool to inhibit αVβ5 function. The optimal concentration for inhibition was determined for each cell li ...

binding to kindlin by MST (kindlin-2)	Substance	binding to ARH by MST (β1) (full-length human ARH)	binding to Numb by MST (β1) (Numb-PTB (20-175))	interaction with ARH in pulldown (ARH)	interaction with Numb in pulldown (Numb)	interaction with talin in pulldown (talin)	interaction with KANK-2 in pulldown (KANK-2)	interaction with kindlin-1/2 in pulldown (kindlin-1/2)	inhibition of β5 clustering [1]	proliferation, SW620 (SW620 cells [2])	proliferation, HT29 (HT29 cells)	proliferation, SW480 (SW480 cells)	growth phenotype (SW620 cells [3])	integrin αVβ3/αVβ5 antagonism (integrin αVβ3/αVβ5)
much higher affinity than β3 and β5	HDRREFAKFEKEKMNAKWDTGENPIYKSAVTTVVNPKYEGK-OH [β1, synthetic integrin β1 cytoplasmic tail peptide]	no binding; also recorded: unable to detect binding	no binding; also recorded: unable to detect binding	not β1 and β3, bind to Numb and ARH	not β1 and β3, bind to Numb and ARH	interaction	interaction	interaction	–	–	–	–	–	–
–	cilengitide (RGDFV; chains of the INN, looked up) [integrin αVβ3/αVβ5 antagonist]	–	–	–	–	–	–	–	Inhibition of β5 clustering	significant decrease in proliferation	significant decrease in proliferation	significant decrease in proliferation	grew on top of each other	antagonist

From PMC9234671, “Molecular determinants of αVβ5 localization in flat clathrin lattices – role of αVβ5 in cell adhesion and proliferation” (Journal of Cell Science, 2022)
